Literature values in patent US9717704B2, “Method of treating, delaying and/or preventing Alzheimer's Disease” (Smartfish AS, priority 2013, dated 2017).

How the values were obtained:
[1] = system: PBMCs / macrophages of AD patients; conditions: in vitro (Mizwicki et al. 2013)
[2] = system: amyloid-beta; conditions: cell lines (Marambaud, Zhao et al. 2005)

CC/C=C\C[C@H](O)/C=C/C=C\C=C\C=C\[C@@H](O)[C@@H](O)C/C=C\CCC(=O)O [resolvin D1]
Abeta phagocytosis [1]: repair
deregulation of inflammatory genes [1]: repair the deregulation of these genes

Oc1ccc(/C=C/c2cc(O)cc(O)c2)cc1 [Resveratrol, 3,5,4′-trihydroxy-trans-stilbene]
proteasome degradation of amyloid-beta [2]: promote proteasome degradation of amyloid-beta

C=C1/C(=C\C=C2/CCC[C@]3(C)[C@@H]([C@H](C)CCCC(C)(C)O)CC[C@@H]23)C[C@@H](O)C[C@@H]1O [1,25dihydroxyvitamin D3]
Abeta phagocytosis [1]: repair
deregulation of inflammatory genes [1]: repair the deregulation of these genes
